Test results published in patent US9745266B2 (THE REGENTS OF THE UNIVERSITY OF COLORADO, A BODY CORPORATE, priority 2013, dated 2017).
Values after ≈ are worked out from the molar mass of the structure shown. Where two headings read alike, the source gives them in different places.

Assays:
[1] = system: MRSA ATCC BAA-44; assay: MIC, CLSI broth microdilution; assay type: cell-based, S. aureus; conditions: MRSA ATCC BAA-44, compound alone
[2] = system: MRSA ATCC BAA-44; assay: MIC in the presence of 20 μM Of1 / alkaloid; assay type: cell-based, S. aureus; conditions: MRSA ATCC BAA-44; for fold of potentiation: MIC / MIC (+20 μM Of1); for MIC (+Of1): in the presence of 20 μM Of1
Protocol: Indoline alkaloid compounds were then screened for the ability to potentiate the activity of methicillin against MRSA. A multi-drug resistant MRSA strain (ATCC: BAA-44) was selected for the initial screening. […] To each well, 20 μM of each individual indoline alkaloid was added and the plates were incubated at 37° C. for 16 hrs.
The MRSA strain ATCC BAA-44 and the methicillin-sensitive S. aureus (MSSA) strain ATCC 25923 were used to determine the MIC values of various antimicrobial compounds in the presence of 20 μM Of1. The experiment was conducted similarly to the CLSI MIC determination described previously; however, MHB was supplemented with 40 μM Of1 prior to set up and inoculation. The final concentration of Of1 after inoculation with BAA-44 was 20 μM.

[3] = Mammalian cytotoxicity, CellTiter-Glo viability assay; assay type: cell-based, human; conditions: human, HeLa cells
Protocol: To evaluate the cytotoxicity of Of1 in mammalian cells, a cell viability assay was carried out using CellTiter-Glo luminescent cell viability assay kit (Promega). Human cervixcal adenocarcinoma HeLa cells were seeded on white, cell-culture treated 96-well plates (Corning: 3917) with Dulbecco's modified Eagle's medium (DMEM) supplemented with 10% fetal calf serum (FCS), 1% penicillin/streptomycin, at the densities of 20,000 cells/well. The medium volume for each well was 100 μL. Cells were incubated at 37° C. in 5% CO2/95% air for 16 hours. The medium was removed from each well and replaced with 99 μL of warmed fresh medium. To each well, 1 μL of Of1 analog was added in DMSO to final concentrations of 0.5-32 μg/mL. Each series was performed in triplicate. After incubation at 37° C. for another 24 hours, the plates were equilibrated to room temperature for 30 minutes. 100 μL of CellTiter-Glo reagent (Promega) was added to each well and mixed for 2 minutes on an orbital shaker. The plate was incubated at room temperature for another 10 minutes to stabilize luminescent signal. The luminescence of each sample was recorded in an Envision Multilabel Plate Reader (Perkin Elmer).

[4] = Staphylococcus aureus, read-out: MIC

Compound | MIC [1] | fold of potentiation [2] | MIC (+Of1) [2] | MIC [1, 4] | GI50 at 24 h [3]
amoxicillin/clavulanate | 32/16 | 8 | 4/2 | – | –
CN(C)[C@@H]1C(O)=C(C(N)=O)C(=O)[C@@]2(O)C(O)=C3C(=O)c4c(O)cccc4[C@@](C)(O)[C@H]3C[C@@H]12 [tetracycline] | – | 1 | 64 µg/mL | 64 µg/mL (≈ 144 µM) | –
Cc1onc(-c2ccccc2)c1C(=O)N[C@@H]1C(=O)N2[C@@H]1SC(C)(C)[C@@H]2C(=O)O [oxacillin] | – | – | 0.5 µg/mL | 64 µg/mL (≈ 159 µM) | –
Cc1nnc(SCC2=C(C(=O)O)N3C(=O)[C@@H](NC(=O)Cn4cnnn4)[C@H]3SC2)s1 [cefazolin] | – | 32 | 4 µg/mL | 128 µg/mL (≈ 282 µM) | –
CC1=C(C(=O)O)N2C(=O)[C@@H](NC(=O)[C@H](N)c3ccccc3)[C@H]2SC1 [cephalexin] | – | 16 | 16 µg/mL | 256 µg/mL (≈ 737 µM) | –
COc1cccc(OC)c1C(=O)N[C@@H]1C(=O)N2[C@@H]1SC(C)(C)[C@@H]2C(=O)O [methicillin] | – | 16 | 8 µg/mL | 128 µg/mL (≈ 336 µM) | –
C[C@@H](O)[C@H]1C(=O)N2C(C(=O)O)=C(SCCN=CN)C[C@H]12 [imipenem] | – | 8 | .0625 µg/mL | 0.5 µg/mL (≈ 1.67 µM) | –
C=C1CCCC2Nc3c(F)cc(Br)cc3C12CCNS(=O)(=O)c1ccc(C(F)(F)F)cc1 (stereo not shown) [Cpd 13i, N-[2-(6-bromo-8-fluoro-4-methylidene-2,3,4,4a,9,9a-hexahydro-1H-carbazol-4a-yl)ethyl]-4-(trifluoromethyl)benzene-1-sulfonamide] | – | – | – | – | 8.7 µg/mL (≈ 16.3 µM)
C=C1CCCC2Nc3c(F)cc(Br)cc3C12CCNS(=O)(=O)c1ccc(Br)cc1C (stereo not shown) [Cpd 13n, 4-bromo-N-[2-(6-bromo-8-fluoro-4-methylidene-2,3,4,4a,9,9a-hexahydro-1H-carbazol-4a-yl)ethyl]-2-methylbenzene-1-sulfonamide] | – | – | – | – | 13.5 µg/mL (≈ 24.2 µM)
